# Reference: PubChem BioAssay (NCI)
#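 Results reflect a 48-hour exposure of cells in 96-well plates to compound at five concentrations. TGI marks complete inhibition of growth.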
# How the values were obtained:
# Assay in all cases: growth of human tumour cells (NCI), 48 h
# [1] = system: SNB-19 CNS
# [2] = system: HT29 colon
# [3] = system: A498 renal
# [4] = system: TK-10 renal
# [5] = system: LOX IMVI melanoma
# [6] = system: NCI-H226 lung
# [7] = system: HCT-15 colon
# [8] = system: COLO 205 colon
# [9] = system: A549 NSCLC
# [10] = system: K-562 leukemia
# [11] = system: SF-295 CNS
# [12] = system: NCI-H522 lung
# [13] = system: NCI-H23 lung
# [14] = system: 786-0 renal
# [15] = system: T-47D breast
# [16] = system: HL-60(TB) leukemia
# [17] = system: IGROV1 ovarian
# [18] = system: RXF 393 renal
# [19] = system: MDA-MB-435
# [20] = system: DU-145 prostate
# [21] = system: SR leukemia
# [22] = system: OVCAR-4 ovarian
# [23] = system: SN12C renal
# [24] = system: NCI/ADR-RES ovarian
# [25] = system: MDA-N
# [26] = system: HOP-92 NSCLC
# [27] = system: SF-268 CNS
# [28] = system: UACC-257 melanoma
# [29] = system: PC-3 prostate
# [30] = system: SK-MEL-2 melanoma
# [31] = system: ACHN renal
# [32] = system: HCC-2998 colon
# [33] = system: HCT-116 colon
# [34] = system: OVCAR-3 ovarian
# [35] = system: M14 melanoma
# [36] = system: SK-MEL-28 melanoma
# [37] = system: SW-620 colon
# [38] = system: SF-539 CNS
# [39] = system: CCRF-CEM leukemia
# [40] = system: UO-31 renal
# [41] = system: MDA-MB-231 breast
# [42] = system: OVCAR-8 ovarian
# [43] = system: MALME-3M melanoma
# [44] = system: NCI-H460 lung
# [45] = system: UACC-62 melanoma
# [46] = system: KM12 colon
# [47] = system: SK-OV-3 ovarian
# [48] = system: OVCAR-5 ovarian
# [49] = system: U251 CNS
# [50] = system: SK-MEL-5 melanoma
# [51] = system: EKVX NSCLC
# [52] = system: HOP-62 NSCLC
# [53] = system: BT-549 breast
# [54] = system: MOLT-4 leukemia
# [55] = system: RPMI-8226 leukemia
# [56] = system: MCF7 breast
# [57] = system: HS 578T breast
# [58] = system: CAKI-1 renal
# [59] = system: SNB-75 CNS
structure (smiles),measurement,setting,value
Cc1[nH]c(=O)nc2nc3ccc(Cl)cc3c(N(CCO)CCO)c12,TGI,[1],> 100 µM
same,TGI,[2],> 100 µM
same,TGI,[3],> 100 µM
same,TGI,[4],> 100 µM
same,TGI,[5],> 100 µM
same,TGI,[6],> 100 µM
same,TGI,[7],> 100 µM
same,TGI,[8],> 100 µM
same,TGI,[9],> 100 µM
same,TGI,[10],> 100 µM
same,TGI,[11],> 100 µM
same,TGI,[12],48 µM
same,TGI,[13],> 100 µM
same,TGI,[14],> 100 µM
same,TGI,[15],> 100 µM
same,TGI,[16],> 100 µM
same,TGI,[17],> 100 µM
same,TGI,[18],> 100 µM
same,TGI,[19],> 100 µM
same,TGI,[20],> 100 µM
same,TGI,[21],> 100 µM
same,TGI,[22],> 100 µM
same,TGI,[23],> 100 µM
same,TGI,[24],> 100 µM
same,TGI,[25],> 100 µM
same,TGI,[26],> 100 µM
same,TGI,[27],> 100 µM
same,TGI,[28],> 100 µM
same,TGI,[29],> 100 µM
same,TGI,[30],> 100 µM
same,TGI,[31],> 100 µM
same,TGI,[32],> 100 µM
same,TGI,[33],> 100 µM
same,TGI,[34],> 100 µM
same,TGI,[35],> 100 µM
same,TGI,[36],> 100 µM
same,TGI,[37],> 100 µM
same,TGI,[38],> 100 µM
same,TGI,[39],> 100 µM
same,TGI,[40],> 100 µM
same,TGI,[41],> 100 µM
same,TGI,[42],> 100 µM
same,TGI,[43],> 100 µM
same,TGI,[44],> 100 µM
same,TGI,[45],> 100 µM
same,TGI,[46],> 100 µM
same,TGI,[47],> 100 µM
same,TGI,[48],> 100 µM
same,TGI,[49],> 100 µM
same,TGI,[50],> 100 µM
same,TGI,[51],> 100 µM
same,TGI,[52],> 100 µM
same,TGI,[53],> 100 µM
same,TGI,[54],> 100 µM
same,TGI,[55],> 100 µM
same,TGI,[56],> 100 µM
same,TGI,[57],> 100 µM
same,TGI,[58],> 100 µM
CCn1c(=O)c2cn[nH]c2n(C)c1=O,TGI,[1],> 100 µM
same,TGI,[2],> 100 µM
same,TGI,[3],> 100 µM
same,TGI,[4],> 100 µM
same,TGI,[5],> 100 µM
same,TGI,[6],> 100 µM
same,TGI,[7],> 100 µM
same,TGI,[8],> 100 µM
same,TGI,[9],> 100 µM
same,TGI,[10],> 100 µM
same,TGI,[11],> 100 µM
same,TGI,[12],> 100 µM
same,TGI,[13],> 100 µM
same,TGI,[14],> 100 µM
same,TGI,[15],> 100 µM
same,TGI,[17],> 100 µM
same,TGI,[18],> 100 µM
same,TGI,[19],> 100 µM
same,TGI,[20],> 100 µM
same,TGI,[21],> 100 µM
same,TGI,[22],> 100 µM
same,TGI,[23],> 100 µM
same,TGI,[24],> 100 µM
same,TGI,[25],> 100 µM
same,TGI,[26],> 100 µM
same,TGI,[27],> 100 µM
same,TGI,[28],> 100 µM
same,TGI,[29],> 100 µM
same,TGI,[30],> 100 µM
same,TGI,[31],> 100 µM
same,TGI,[32],> 100 µM
same,TGI,[33],> 100 µM
same,TGI,[34],> 100 µM
same,TGI,[35],> 100 µM
same,TGI,[36],> 100 µM
same,TGI,[37],> 100 µM
same,TGI,[38],> 100 µM
same,TGI,[39],> 100 µM
same,TGI,[40],> 100 µM
same,TGI,[41],> 100 µM
same,TGI,[42],> 100 µM
same,TGI,[43],> 100 µM
same,TGI,[44],> 100 µM
same,TGI,[45],> 100 µM
same,TGI,[46],> 100 µM
same,TGI,[47],> 100 µM
same,TGI,[48],> 100 µM
same,TGI,[49],> 100 µM
same,TGI,[50],> 100 µM
same,TGI,[51],> 100 µM
same,TGI,[52],> 100 µM
same,TGI,[53],> 100 µM
same,TGI,[54],> 100 µM
same,TGI,[55],> 100 µM
same,TGI,[59],> 100 µM
same,TGI,[56],> 100 µM
same,TGI,[57],> 100 µM
same,TGI,[58],> 100 µM
